Values quoted from earlier work as cited in US12648912B2 (Mylan Laboratories Limited, priority 2020, dated 2026).

How the values were obtained:
[1] = not given; remark: listed apart in the source

Tmax in fasted state relative to after breakfast (15 mg tablets, fasted state): doubled | Tmax (time to reach maximum concentration) (orally delivered, humans): 4 to 6 h | second meloxicam concentration peak, time post-dose (post-dose, suggested gastrointestinal recirculation): 12 to 14 h | solubility in methanol ([1]; methanol): very slightly soluble | solubility in water ([1]; water): practically insoluble
SMILES: Cc1cnc(NC(=O)C2=C(O)c3ccccc3S(=O)(=O)N2C)s1 [Meloxicam, 4-hydroxy-2-methyl-N-(5-methyl-2-thiazolyl)-2H-1,2-benzothiazine-3-carboxamide-1,1-dioxide]
